Data from patent publication US20030104945A1, “2,4-Diamino-1,3,5-triazines, their preparation, and their use as herbicides and plant growth regulators” (priority 2001, published 2003).

Assays:
Assay type in all cases: in vivo
[1] = system: harmful plants such as Sinapis alba, Echinochloa crus-galli, Lolium multiflorum, Stellaria media, Cyperus iria, Amaranthus retroflexus, Setaria viridus and …; test: Post-emergence herbicidal action (greenhouse pot test); details: three-leaf stage, application rate of 1 kg and less of active substance per hectare, scored after approx. 3 to 4 weeks vs untreated controls
Protocol: Seeds or rhizome sections of monocotyledonous and dicotyledonous weeds are placed in sandy loam soil in plastic pots, covered with soil and grown in the greenhouse under good growth conditions. Three weeks after sowing, the experimental plants are treated at the three-leaf stage. The compounds according to the invention, which are formulated as wettable powders or as emulsion concentrates, are sprayed at various rates onto the green plant organs at an application rate of 600 to 800 l of water per ha (converted). After the experimental plants have remained in the greenhouse for approx. 3 to 4 weeks under optimal growth conditions, the effect of the compositions is scored visually in comparison with untreated controls. The substances according to the invention also have a good herbicidal action against a broad spectrum of economically important grass weeds and broad-leaved weeds when applied post-emergence.

[2] = system: harmful plants which are typical of rice crops such as, for example, Cyperus monti, Echinochloa crus-galli and Sagittaria pygmaea; test: Activity against harmful plants in rice (paddy rice conditions); details: poured into paddy water at various dosages; scored about three weeks after application vs untreated controls; note: test concentration or dose not given here
Protocol: Transplanted and seeded rice and typical grass weeds and broad-leaved weeds in rice crops are grown in the greenhouse under paddy rice conditions (depth of the paddy water: 2-3 cm) in sealed plastic pots until they have reached the three-leaf stage (Echinochloa crus-galli 1.5-leaf). They are then treated with the compounds according to the invention. To this end, the formulated active substances are suspended, dissolved or emulsified in water and the product is poured into the paddy water of the test plants at various dosages. After the treatment has been carried out thus, the test plants are placed in the greenhouse under optimal growth conditions and kept like this over the entire experimental period.
About three weeks after application, the evaluation is carried out by is of visually scoring the plant damage in comparison with untreated controls.

[3] = system: harmful plants such as Stellaria media, Lolium multiflorum, Amaranthus retroflexus, Sinapis alba, Avena sativa and Setaria viridis; test: Pre-emergence herbicidal action (greenhouse pot test); details: application rate of 1 kg or less active substance per hectare, scored after 3 to 4 weeks vs untreated controls
Source text: Seeds and rhizome sections of monocotyledonous and dicotyledonous harmful plants are placed in sandy loam in plastic pots and covered with soil. The compounds according to the invention which are formulated in the form of wettable powders or emulsion concentrates at various rates, are then applied to the surface of the covering soil as aqueous suspension or emulsion at an application rate of 600 to 800 l of water per ha (converted).
After the treatment, the pots are placed in the greenhouse and kept under good growth conditions for the weeds. Visual scoring of the plant damage or the adverse effect on emergence is done after the test plants have emerged after an experimental period of 3 to 4 weeks in comparison with untreated controls.

CCC(Nc1nc(N)nc(C(C)F)n1)[C@@H]1C[C@H]1c1ccccc1 (relative stereo) [Example 2-3]
very good herbicidal activity: herbicidal activity, visual scoring [1] | herbicidal activity, visual scoring of plant damage [2] | herbicidal activity, visual scoring of plant damage or adverse effect on emergence [3]

CCC(F)c1nc(N)nc(NC(C2CCC2)[C@@H]2C[C@H]2c2ccccc2)n1 (relative stereo) [Example 4-4]
very good herbicidal activity: herbicidal activity, visual scoring [1] | herbicidal activity, visual scoring of plant damage [2] | herbicidal activity, visual scoring of plant damage or adverse effect on emergence [3]

CCC(F)c1nc(N)nc(NC(C2CC2)[C@@H]2C[C@H]2c2cc(Cl)cc(Cl)c2)n1 (relative stereo) [Example 3-27]
very good herbicidal activity: herbicidal activity, visual scoring [1] | herbicidal activity, visual scoring of plant damage [2] | herbicidal activity, visual scoring of plant damage or adverse effect on emergence [3]

CC(C)(F)c1nc(N)nc(NC(C2CCC2)[C@@H]2C[C@H]2c2ccccc2)n1 (relative stereo) [Example 4-1]
very good herbicidal activity: herbicidal activity, visual scoring [1] | herbicidal activity, visual scoring of plant damage [2] | herbicidal activity, visual scoring of plant damage or adverse effect on emergence [3]

CC(F)c1nc(N)nc(NC(C)[C@@H]2C[C@H]2c2ccccc2)n1 (relative stereo) [Example 1-2, 2-Amino-4-(1-fluoroethyl)-6-[1-(trans-2-phenylcyclopropyl)-1-ethylamino]-1,3,5-triazine]
very good herbicidal activity: herbicidal activity, visual scoring [1] | herbicidal activity, visual scoring of plant damage [2] | herbicidal activity, visual scoring of plant damage or adverse effect on emergence [3]

CC(C)c1nc(N)nc(NC(C)[C@@H]2C[C@H]2c2ccccc2)n1 (relative stereo) [Example 1-4]
very good herbicidal activity: herbicidal activity, visual scoring [1] | herbicidal activity, visual scoring of plant damage [2] | herbicidal activity, visual scoring of plant damage or adverse effect on emergence [3]

CC(F)c1nc(N)nc(NC(C2CCC2)[C@@H]2C[C@H]2c2ccccc2)n1 (relative stereo) [Example 4-3]
very good herbicidal activity: herbicidal activity, visual scoring [1] | herbicidal activity, visual scoring of plant damage [2] | herbicidal activity, visual scoring of plant damage or adverse effect on emergence [3]

CCC(F)c1nc(N)nc(NC(C2CC2)[C@@H]2C[C@H]2c2ccccc2)n1 (relative stereo) [Example 3-4]
very good herbicidal activity: herbicidal activity, visual scoring [1] | herbicidal activity, visual scoring of plant damage [2] | herbicidal activity, visual scoring of plant damage or adverse effect on emergence [3]

CCC(F)(CC)c1nc(N)nc(NC(CC2CC2)[C@@H]2C[C@H]2c2ccccc2)n1 (relative stereo) [Example 5-3]
very good herbicidal activity: herbicidal activity, visual scoring [1] | herbicidal activity, visual scoring of plant damage [2] | herbicidal activity, visual scoring of plant damage or adverse effect on emergence [3]

CC(F)c1nc(N)nc(NC(C2CC2)[C@@H]2C[C@H]2c2cc(Cl)cc(Cl)c2)n1 (relative stereo) [Example 3-26]
very good herbicidal activity: herbicidal activity, visual scoring [1] | herbicidal activity, visual scoring of plant damage [2] | herbicidal activity, visual scoring of plant damage or adverse effect on emergence [3]

CCC(Nc1nc(N)nc(C(C)(C)F)n1)[C@@H]1C[C@H]1c1ccccc1 (relative stereo) [Example 2-1, 2-Amino-4-(1-fluoro-1-methylethyl)-6-[1-(trans-2-phenylcyclopropyl)prop-1-ylamino]-1,3,5-triazine]
very good herbicidal activity: herbicidal activity, visual scoring [1] | herbicidal activity, visual scoring of plant damage [2] | herbicidal activity, visual scoring of plant damage or adverse effect on emergence [3]
